Experimental data: US12479847B2 (DANA-FARBER CANCER INSTITUTE, INC., priority 2019, dated 2025)

What follows are compounds tested against human LRRK2 kinase (Homo sapiens, UniProt Q5S007). Conditions: LRRK2, ADP-Glo, ATP 10 μM, 60 minutes at 25° C.
Sequence of human LRRK2 kinase (Q5S007 whole entry): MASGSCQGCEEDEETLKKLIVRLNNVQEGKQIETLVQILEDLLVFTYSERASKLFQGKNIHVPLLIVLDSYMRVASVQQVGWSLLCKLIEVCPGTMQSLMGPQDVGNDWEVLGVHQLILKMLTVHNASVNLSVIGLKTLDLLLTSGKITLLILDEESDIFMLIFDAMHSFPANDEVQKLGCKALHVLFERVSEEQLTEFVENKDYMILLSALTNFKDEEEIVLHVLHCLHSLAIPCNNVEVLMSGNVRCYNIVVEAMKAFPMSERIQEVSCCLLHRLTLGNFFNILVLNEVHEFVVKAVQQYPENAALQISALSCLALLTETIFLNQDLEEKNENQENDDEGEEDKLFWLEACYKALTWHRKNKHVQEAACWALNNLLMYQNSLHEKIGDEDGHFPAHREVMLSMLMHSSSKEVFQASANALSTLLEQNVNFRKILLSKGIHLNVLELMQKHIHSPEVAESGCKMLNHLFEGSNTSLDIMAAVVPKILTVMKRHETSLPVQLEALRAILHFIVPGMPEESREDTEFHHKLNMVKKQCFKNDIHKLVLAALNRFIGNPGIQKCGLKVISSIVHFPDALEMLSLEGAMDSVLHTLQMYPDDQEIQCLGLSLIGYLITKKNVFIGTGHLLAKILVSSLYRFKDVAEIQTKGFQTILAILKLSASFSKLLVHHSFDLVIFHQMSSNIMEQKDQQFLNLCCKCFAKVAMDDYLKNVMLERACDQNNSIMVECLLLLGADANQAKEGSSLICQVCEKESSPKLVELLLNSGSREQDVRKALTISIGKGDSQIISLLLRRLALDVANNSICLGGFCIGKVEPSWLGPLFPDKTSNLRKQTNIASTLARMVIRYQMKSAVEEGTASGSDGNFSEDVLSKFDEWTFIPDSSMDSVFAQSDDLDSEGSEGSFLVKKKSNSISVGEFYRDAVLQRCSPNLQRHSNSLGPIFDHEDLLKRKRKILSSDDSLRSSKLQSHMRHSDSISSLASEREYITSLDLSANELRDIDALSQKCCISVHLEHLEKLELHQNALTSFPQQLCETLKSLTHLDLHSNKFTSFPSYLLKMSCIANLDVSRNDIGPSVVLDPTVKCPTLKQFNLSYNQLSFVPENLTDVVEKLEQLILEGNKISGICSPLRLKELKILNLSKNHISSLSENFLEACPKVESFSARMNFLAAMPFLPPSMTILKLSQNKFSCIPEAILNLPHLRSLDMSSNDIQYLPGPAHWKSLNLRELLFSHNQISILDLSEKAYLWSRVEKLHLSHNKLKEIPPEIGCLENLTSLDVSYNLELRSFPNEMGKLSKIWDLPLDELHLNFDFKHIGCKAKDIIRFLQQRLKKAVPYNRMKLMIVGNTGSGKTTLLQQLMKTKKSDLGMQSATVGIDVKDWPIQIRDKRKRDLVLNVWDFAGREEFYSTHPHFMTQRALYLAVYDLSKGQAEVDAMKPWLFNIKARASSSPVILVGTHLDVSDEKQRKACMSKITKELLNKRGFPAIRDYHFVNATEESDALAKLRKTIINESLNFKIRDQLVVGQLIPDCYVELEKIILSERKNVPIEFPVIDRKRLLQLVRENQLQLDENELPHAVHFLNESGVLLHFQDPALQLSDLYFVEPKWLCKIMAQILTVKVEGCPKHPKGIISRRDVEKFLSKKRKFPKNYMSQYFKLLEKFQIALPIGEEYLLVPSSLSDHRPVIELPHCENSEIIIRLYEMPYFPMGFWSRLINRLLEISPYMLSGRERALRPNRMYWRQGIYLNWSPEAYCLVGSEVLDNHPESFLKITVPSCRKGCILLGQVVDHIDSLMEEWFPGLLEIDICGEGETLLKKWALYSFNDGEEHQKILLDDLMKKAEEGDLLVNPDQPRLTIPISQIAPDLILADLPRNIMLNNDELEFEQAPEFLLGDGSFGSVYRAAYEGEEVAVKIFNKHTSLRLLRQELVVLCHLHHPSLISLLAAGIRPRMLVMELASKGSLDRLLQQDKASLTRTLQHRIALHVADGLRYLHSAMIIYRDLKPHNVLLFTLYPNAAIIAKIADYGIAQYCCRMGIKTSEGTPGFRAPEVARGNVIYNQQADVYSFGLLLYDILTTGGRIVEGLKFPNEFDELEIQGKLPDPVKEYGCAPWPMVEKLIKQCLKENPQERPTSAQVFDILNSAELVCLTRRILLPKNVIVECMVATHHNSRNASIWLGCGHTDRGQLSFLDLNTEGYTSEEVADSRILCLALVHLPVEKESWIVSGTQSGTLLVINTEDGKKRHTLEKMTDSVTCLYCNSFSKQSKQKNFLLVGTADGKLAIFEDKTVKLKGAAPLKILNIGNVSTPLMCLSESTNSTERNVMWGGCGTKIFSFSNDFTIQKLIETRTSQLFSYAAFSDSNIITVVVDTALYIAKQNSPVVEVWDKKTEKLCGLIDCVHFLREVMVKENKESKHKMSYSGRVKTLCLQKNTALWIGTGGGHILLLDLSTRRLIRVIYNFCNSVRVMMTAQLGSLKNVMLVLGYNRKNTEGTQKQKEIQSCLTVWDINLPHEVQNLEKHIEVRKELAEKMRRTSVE

| IC50 | Compound |
| --- | --- |
| 100 to 1000 nM | COc1cc(P2(=O)CCN(C3CC3)CC2)ccc1Nc1nc(NC2CCCCC2)c2c(Cl)c[nH]c2n1 [Compound 93, 4-(4-((5-chloro-4-(cyclohexylamino)-7H-pyrrolo[2,3-d]pyrimidin-2-yl)amino)-3-methoxyphenyl)-1-cyclopropyl-1,4-azaphosphinane 4-oxide] |
| < 10 nM | O=C(c1ccc(Nc2nc(NC3CCC3)c3c(Cl)c[nH]c3n2)c2c1OCCO2)N1CCOCC1 [Compound 30, (8-((5-chloro-4-(cyclobutylamino)-7H-pyrrolo[2,3-d]pyrimidin-2-yl)amino)-2,3-dihydrobenzo[b][1,4]dioxin-5-yl)(morpholino)methanone] |
| 10 to 100 nM | CC(C)Nc1nc(Nc2ccc(C(=O)N3CCC(N4CCOCC4)CC3)c3c2OCCO3)nc2[nH]cc(Cl)c12 [Compound 88] |
| 100 to 1000 nM | O=C(c1ccc(Nc2nc(NCC3CCCC3)c3c(Cl)c[nH]c3n2)c2c1OCCO2)N1CCOCC1 [Compound 46, (8-((5-chloro-4-((cyclopentylmethyl)amino)-7H-pyrrolo[2,3-d]pyrimidin-2-yl)amino)-2,3-dihydrobenzo[b][1,4]dioxin-5-yl)(morpholino)methanone] |
| 10 to 100 nM | COc1cc(P2(=O)CCN(C(C)=O)CC2)ccc1Nc1nc(NC2CCC2)c2c(Cl)c[nH]c2n1 [Compound 92] |
| 100 to 1000 nM | COc1cc(S(=O)(=O)N2CCC(N3CCOCC3)CC2)ccc1Nc1nc(NC2CCC2)c2c(Cl)c[nH]c2n1 [Compound 28, 5-chloro-N4-cyclobutyl-N2-(2-methoxy-4-((4-morpholinopiperidin-1-yl)sulfonyl)phenyl)-7H-pyrrolo[2,3-d]pyrimidine-2,4-diamine] |
| < 10 nM | CNc1nc(Nc2ccc(S(C)(=O)=O)cc2OC)nc2[nH]cc(Cl)c12 [Compound 13, 5-chloro-N2-(2-methoxy-4-(methylsulfonyl)phenyl)-N4-methyl-7H-pyrrolo[2,3-d]pyrimidine-2,4-diamine] |
| 10 to 100 nM | COc1cc(P2(=O)CCN(C(C)=O)CC2)ccc1Nc1nc(NC(C)C)c2c(Cl)c[nH]c2n1 [Compound 89, 1-(4-(4-((5-chloro-4-(isopropylamino)-7H-pyrrolo[2,3-d]pyrimidin-2-yl)amino)-3-methoxyphenyl)-4-oxido-1,4-azaphosphinan-1-yl)ethan-1-one] |
| 10 to 100 nM | O=C(c1ccc(Nc2nc(NC3CCC3)c3c(Cl)c[nH]c3n2)c2c1CCO2)N1CCC(N2CCOCC2)CC1 [Compound 103, (7-((5-chloro-4-(cyclobutylamino)-7H-pyrrolo[2,3-d]pyrimidin-2-yl)amino)-2,3-dihydrobenzofuran-4-yl)(4-morpholinopiperidin-1-yl)methanone] |
| < 10 nM | COc1cc(S(=O)(=O)N2CCC(N3CCOCC3)CC2)ccc1Nc1nc(NC2CC2)c2c(Cl)c[nH]c2n1 [Compound 25, 5-chloro-N4-cyclopropyl-N2-(2-methoxy-4-((4-morpholinopiperidin-1-yl)sulfonyl)phenyl)-7H-pyrrolo[2,3-d]pyrimidine-2,4-diamine] |
| 100 to 1000 nM | CC[C@@H](C)Nc1nc(Nc2ccc(S(=O)(=O)N3CCC(N4CCOCC4)CC3)cc2OC)nc2[nH]cc(Cl)c12 [Compound 48, (R)—N4-(sec-butyl)-5-chloro-N2-(2-methoxy-4-((4-morpholinopiperidin-1-yl)sulfonyl)phenyl)-7H-pyrrolo[2,3-d]pyrimidine-2,4-diamine] |
| < 10 nM | CNc1nc(Nc2ccc(C(=O)N3CCOCC3)c3c2OCC3)nc2[nH]cc(Cl)c12 [Compound 76, (7-((5-chloro-4-(methylamino)-7H-pyrrolo[2,3-d]pyrimidin-2-yl)amino)-2,3-dihydrobenzofuran-4-yl)(morpholino)methanone] |
| 100 to 1000 nM | O=C(c1ccc(Nc2nc(NC3CCCCC3)c3c(Cl)c[nH]c3n2)c2c1CCO2)N1CCC(N2CCOCC2)CC1 [Compound 80, (7-((5-chloro-4-(cyclohexylamino)-7H-pyrrolo[2,3-d]pyrimidin-2-yl)amino)-2,3-dihydrobenzofuran-4-yl)(4-morpholinopiperidin-1-yl)methanone] |
| 100 to 1000 nM | COc1cc(S(C)(=O)=O)ccc1Nc1nc(NC2CCCC2)c2c(Cl)c[nH]c2n1 [Compound 57, 5-chloro-N4-cyclopentyl-N2-(2-methoxy-4-(methylsulfonyl)phenyl)-7H-pyrrolo[2,3-d]pyrimidine-2,4-diamine] |
| < 10 nM | CCNc1nc(Nc2ccc(S(=O)(=O)N3CCC(N4CCOCC4)CC3)cc2OC)nc2[nH]cc(Cl)c12 [Compound 15, 5-chloro-N4-ethyl-N2-(2-methoxy-4-((4-morpholinopiperidin-1-yl)sulfonyl)phenyl)-7H-pyrrolo[2,3-d]pyrimidine-2,4-diamine] |
| 10 to 100 nM | COc1cc(P2(=O)CCN(C(C)=O)CC2)ccc1Nc1nc(NCC(C)C)c2c(Cl)c[nH]c2n1 [Compound 97, 1-(4-(4-((5-chloro-4-(isobutylamino)-7H-pyrrolo[2,3-d]pyrimidin-2-yl)amino)-3-methoxyphenyl)-4-oxido-1,4-azaphosphinan-1-yl)ethan-1-one] |

| IC50 | Compound |
| --- | --- |
| 100 to 1000 nM | CCC(C)Nc1nc(Nc2ccc(S(C)(=O)=O)cc2OC)nc2[nH]cc(Cl)c12 (stereo in doubt) [Compound 53, (S)—N4-(sec-butyl)-5-chloro-N2-(2-methoxy-4-(methylsulfonyl)phenyl)-7H-pyrrolo[2,3-d]pyrimidine-2,4-diamine] |
| 10 to 100 nM | CCCNc1nc(Nc2ccc(P3(=O)CCN(C4CC4)CC3)cc2OC)nc2[nH]cc(Cl)c12 [Compound 99, 4-(4-((5-chloro-4-(propylamino)-7H-pyrrolo[2,3-d]pyrimidin-2-yl)amino)-3-methoxyphenyl)-1-cyclopropyl-1,4-azaphosphinane 4-oxide] |
| 100 to 1000 nM | CCCNc1nc(Nc2ccc(S(=O)(=O)N3CCOCC3)cc2OC)nc2[nH]cc(Cl)c12 [Compound 18, 5-chloro-N2-(2-methoxy-4-(morpholinosulfonyl)phenyl)-N4-propyl-7H-pyrrolo[2,3-d]pyrimidine-2,4-diamine] |
| < 10 nM | CNc1nc(Nc2ccc(C(=O)N3CCC(N4CCOCC4)CC3)c3c2OCC3)nc2[nH]cc(Cl)c12 [Compound 86, (7-((5-chloro-4-(methylamino)-7H-pyrrolo[2,3-d]pyrimidin-2-yl)amino)-2,3-dihydrobenzofuran-4-yl)(4-morpholinopiperidin-1-yl)methanone] |
| 10 to 100 nM | CCNc1nc(Nc2ccc(S(C)(=O)=O)cc2OC)nc2[nH]cc(Cl)c12 [Compound 16, 5-chloro-N4-ethyl-N2-(2-methoxy-4-(methylsulfonyl)phenyl)-7H-pyrrolo[2,3-d]pyrimidine-2,4-diamine] |
| > 1000 nM | CCNc1nc(Nc2ccc(S(=O)(=O)N3CCOCC3)cc2OC)nc2[nH]cc(Cl)c12 [Compound 6, 5-chloro-N4-ethyl-N2-(2-methoxy-4-(morpholinosulfonyl)phenyl)-7H-pyrrolo[2,3-d]pyrimidine-2,4-diamine] |
| < 10 nM | COc1cc(S(C)(=O)=O)ccc1Nc1nc(NC2CC2)c2c(Cl)c[nH]c2n1 [Compound 26, 5-chloro-N4-cyclopropyl-N2-(2-methoxy-4-(methylsulfonyl)phenyl)-7H-pyrrolo[2,3-d]pyrimidine-2,4-diamine] |
| < 10 nM | CC[C@@H](C)Nc1nc(Nc2ccc(C(=O)N3CCOCC3)c3c2OCCO3)nc2[nH]cc(Cl)c12 [Compound 50, (R)-(8-((4-(sec-butylamino)-5-chloro-7H-pyrrolo[2,3-d]pyrimidin-2-yl)amino)-2,3-dihydrobenzo[b][1,4]dioxin-5-yl)(morpholino)methanone] |
| < 10 nM | CCNc1nc(Nc2ccc(C(=O)N3CCC(N4CCOCC4)CC3)c3c2OCC3)nc2[nH]cc(Cl)c12 [Compound 105, (7-((5-chloro-4-(ethylamino)-7H-pyrrolo[2,3-d]pyrimidin-2-yl)amino)-2,3-dihydrobenzofuran-4-yl)(4-morpholinopiperidin-1-yl)methanone] |
| 100 to 1000 nM | COc1cc(P2(=O)CCN(C3CC3)CC2)ccc1Nc1nc(NCC(C)C)c2c(Cl)c[nH]c2n1 [Compound 96, 4-(4-((5-chloro-4-(isobutylamino)-7H-pyrrolo[2,3-d]pyrimidin-2-yl)amino)-3-methoxyphenyl)-1-cyclopropyl-1,4-azaphosphinane 4-oxide] |
| 10 to 100 nM | COc1cc(P2(=O)CCN(C3CC3)CC2)ccc1Nc1nc(NC2CCCC2)c2c(Cl)c[nH]c2n1 [Compound 78, 4-(4-((5-chloro-4-(cyclopentylamino)-7H-pyrrolo[2,3-d]pyrimidin-2-yl)amino)-3-methoxyphenyl)-1-cyclopropyl-1,4-azaphosphinane 4-oxide] |
| < 10 nM | COCCNc1nc(Nc2ccc(C(=O)N3CCC(N4CCOCC4)CC3)c3c2OCCO3)nc2[nH]cc(Cl)c12 [Compound 5, (8-((5-chloro-4-((2-methoxyethyl)amino)-7H-pyrrolo[2,3-d]pyrimidin-2-yl)amino)-2,3-dihydrobenzo[b][1,4]dioxin-5-yl)(4-morpholinopiperidin-1-yl)methanone] |
| < 10 nM | O=C(c1ccc(Nc2nc(NCC3CC3)c3c(Cl)c[nH]c3n2)c2c1OCCO2)N1CCOCC1 [Compound 65, (8-((5-chloro-4-((cyclopropylmethyl)amino)-7H-pyrrolo[2,3-d]pyrimidin-2-yl)amino)-2,3-dihydrobenzo[b][1,4]dioxin-5-yl)(morpholino)methanone] |
| 100 to 1000 nM | COc1cc(S(=O)(=O)N2CCOCC2)ccc1Nc1nc(NC2CCC2)c2c(Cl)c[nH]c2n1 [Compound 7, 5-chloro-N4-cyclobutyl-N2-(2-methoxy-4-(morpholinosulfonyl)phenyl)-7H-pyrrolo[2,3-d]pyrimidine-2,4-diamine] |
| 10 to 100 nM | COc1cc(S(C)(=O)=O)ccc1Nc1nc(NC2CCOCC2)c2c(Cl)c[nH]c2n1 [Compound 63, 5-chloro-N2-(2-methoxy-4-(methylsulfonyl)phenyl)-N4-(tetrahydro-2H-pyran-4-yl)-7H-pyrrolo[2,3-d]pyrimidine-2,4-diamine] |
| 100 to 1000 nM | COc1cc(S(=O)(=O)N2CCOCC2)ccc1Nc1nc(NC2CCCCC2)c2c(Cl)c[nH]c2n1 [Compound 58, 5-chloro-N4-cyclohexyl-N2-(2-methoxy-4-(morpholinosulfonyl)phenyl)-7H-pyrrolo[2,3-d]pyrimidine-2,4-diamine] |
